{"source": "patent US9701709B2", "about": "(REATA PHARMACEUTICALS, INC., priority 2012, dated 2017)", "key": {"[1]": {"assay": "Metabolism in monkey liver microsomes", "format": "in vitro ADME", "settings": "60-min incubation, NADPH and UGT"}, "cynomolgus monkeys": {"system": "cynomolgus monkeys", "settings": "for ALP / ALT / AST / Albumin / BUN / Chol / Cr / Glucose / TG / Tot Bil / Tot Prot: monkey, Day 14"}, "[2]": {"assay": "Topical pharmacokinetics in rats", "format": "in vivo, rat", "settings": "0.01% to 3% suspension in sesame oil", "excerpt": "The topical administration was formulated as a suspension in sesame oil."}, "[3]": {"system": "rat GSTA2 ARE (Nrf2) in AREc32 reporter cell line", "assay": "GSTA2-ARE luciferase reporter in AREc32", "settings": "15.6 nM, 18 h"}, "[4]": {"system": "human NQO1 ARE (Nrf2) in HuH-7 human hepatoma cells", "assay": "NQO1-ARE luciferase reporter in HuH-7", "format": "cell-based", "settings": "15.6 nM, 18 h", "excerpt": "The first luciferase reporter tested was under the control of a single ARE derived from the promoter of the human NQO1 gene, which allows for quantitative assessment of the endogenous activity of the Nrf2 transcription factor in cultured mammalian cells. […] The NQO1-ARE-luciferase reporter plasmid was constructed by inserting the human NQO1-ARE ([NT] ID NO: 31) into the pLuc-MCS vector using HindIII/XhoI cloning sites (GenScript Corp., Piscataway, N.J.). […] Firefly and Renilla luciferase activity was assayed by Dual-Glo Luciferase Assay (cat # E2920, Promega), and the luminescence signal was measured on an L-Max II luminometer (Molecular Devices). Firefly luciferase activity was normalized to the Renilla activity, and fold induction over a vehicle control (DMSO) of normalized Firefly activity was calculated. […] Values represent the average of three independent experiments."}, "CYP2C19": {"target": "CYP2C19 (Homo sapiens, UniProt P33261)", "sequence (P33261 whole entry)": "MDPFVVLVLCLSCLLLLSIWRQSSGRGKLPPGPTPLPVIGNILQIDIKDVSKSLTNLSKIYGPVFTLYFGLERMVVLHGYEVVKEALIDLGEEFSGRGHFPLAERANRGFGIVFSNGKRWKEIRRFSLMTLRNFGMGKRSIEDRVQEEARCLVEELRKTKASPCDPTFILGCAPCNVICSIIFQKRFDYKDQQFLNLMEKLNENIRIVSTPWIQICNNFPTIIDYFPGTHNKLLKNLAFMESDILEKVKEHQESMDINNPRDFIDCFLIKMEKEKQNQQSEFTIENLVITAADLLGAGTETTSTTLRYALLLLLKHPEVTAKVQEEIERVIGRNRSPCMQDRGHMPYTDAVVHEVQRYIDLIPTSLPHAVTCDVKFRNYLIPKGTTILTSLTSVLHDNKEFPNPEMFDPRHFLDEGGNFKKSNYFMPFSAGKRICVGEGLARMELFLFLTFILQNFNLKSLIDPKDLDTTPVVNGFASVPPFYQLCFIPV", "assay": "CYP450 inhibition in pooled human liver microsomes, CYP2C19", "format": "in vitro ADME", "settings": "highest concentration tested (3 μM)", "excerpt": "In addition, there was little or no evidence of metabolism-dependent inhibition of any of the enzymes tested."}, "[5]": {"system": "C4-2B-Luc and DU145-Luc human prostate cancer tumors", "assay": "Pilot in vivo prostate tumor model with ionizing radiation (luciferase imaging)", "set-up": "species or system mouse", "settings": "17.5 mg/kg i.p. plus 18 Gy; n=1", "protocol": "The colors indicated by the arrows are indicative of intensity with the intensities being represented by red, yellow, green, and blue in order from highest to lowest intensity.\nAfter the successful results of the in vitro assay, a pilot in vivo assay was carried out using LNCaP/C4-2B and DU145 human prostate cancer engineered to express firefly luciferase (hereafter referred to as C4-2B-Luc and DU145-Luc, respectively). Of note, both of these cell lines grow in an androgen-independent fashion. Cells were cultured in RPMI 1640 supplemented with 10% FBS. Cells were harvested using TrypLE Express (Invitrogen) and washed in PBS and counted. Cells were reconstituted in PBS to arrive at a final concentration of 3×10^6 cells per 30 μL (unless otherwise stated) and aliquoted in separate tubes. Growth factor-reduced Matrigel (BD Bioscience) was thawed overnight at +4° C. and transferred into the tubes in 30 μL aliquots. The cell/Matrigel solutions were transferred to the vivarium and mixed right before injection at a 1:1 ratio. Each mouse (n=1 per group for a total of three animals) received a single subcutaneous injection of the tumor cells. Tumors were pre-established for 4 weeks. […] Tumor progression was monitored weekly via live imaging. […] For standardization, minimal exposure time necessary to image control tumor was determined and all animals were imaged under these conditions. […]"}}, "note": "Read-outs that look alike come from different tables or passages of the source."}
{"smiles": "CC1(C)CC[C@]2(NC(=O)C(C)(F)F)CC[C@]3(C)[C@H](C(=O)C=C4[C@@]5(C)C=C(C#N)C(=O)C(C)(C)[C@@H]5CC[C@]43C)[C@@H]2C1", "note": "[RTA 408, N-((4aS,6aR,6bS,8aR,12aS,14aR,14bS)-11-cyano-2,2,6a,6b,9,9,12a-heptamethyl-10,14-dioxo-1,2,3,4,4a,5,6,6a,6b,7,8,8a,9,10,12a,14,14a,14b-octadecahydropicen-4a-yl)-2,2-difluoropropanamide]", "values": [{"measurement": "Parent molecule remaining", "setting": "[1]", "result": "< 10", "unit": "%"}, {"measurement": "NQO1, Gst, Gsr enzyme activity in monkey liver and lung (and rodent liver)", "setting": "cynomolgus monkeys; 10, 30, and 100 mg/kg, 14 days", "result": "dose-dependent increases in NQO1, Gst, and Gsr enzyme activity"}, {"measurement": "Clinical chemistry", "setting": "cynomolgus monkeys; 14 days", "result": "Clinical chemistry data suggested no obvious toxicity"}, {"measurement": "ALP", "setting": "cynomolgus monkeys; 10 mg/kg", "result": 382, "unit": "U/L"}, {"measurement": "ALT", "setting": "cynomolgus monkeys; 10 mg/kg", "result": 46, "unit": "U/L"}, {"measurement": "AST", "setting": "cynomolgus monkeys; 10 mg/kg", "result": 38, "unit": "U/L"}, {"measurement": "Albumin", "setting": "cynomolgus monkeys; 10 mg/kg", "result": 4, "unit": "g/dL"}, {"measurement": "BUN", "setting": "cynomolgus monkeys; 10 mg/kg", "result": 27, "unit": "mg/dL"}, {"measurement": "Chol", "setting": "cynomolgus monkeys; 10 mg/kg", "result": 144, "unit": "mg/dL"}, {"measurement": "Cr", "setting": "cynomolgus monkeys; 10 mg/kg", "result": 0.68, "unit": "mg/dL"}, {"measurement": "Glucose", "setting": "cynomolgus monkeys; 10 mg/kg", "result": 39, "unit": "mg/dL"}, {"measurement": "TG", "setting": "cynomolgus monkeys; 10 mg/kg", "result": 82, "unit": "mg/dL"}, {"measurement": "Tot Bil", "setting": "cynomolgus monkeys; 10 mg/kg", "result": 0.23, "unit": "mg/dL"}, {"measurement": "Tot Prot", "setting": "cynomolgus monkeys; 10 mg/kg", "result": 7.2, "unit": "g/dL"}, {"measurement": "ALP", "setting": "cynomolgus monkeys; 30 mg/kg", "result": 416, "unit": "U/L"}, {"measurement": "ALT", "setting": "cynomolgus monkeys; 30 mg/kg", "result": 47, "unit": "U/L"}, {"measurement": "AST", "setting": "cynomolgus monkeys; 30 mg/kg", "result": 43, "unit": "U/L"}, {"measurement": "Albumin", "setting": "cynomolgus monkeys; 30 mg/kg", "result": 4, "unit": "g/dL"}, {"measurement": "BUN", "setting": "cynomolgus monkeys; 30 mg/kg", "result": 20, "unit": "mg/dL"}, {"measurement": "Chol", "setting": "cynomolgus monkeys; 30 mg/kg", "result": 122, "unit": "mg/dL"}, {"measurement": "Cr", "setting": "cynomolgus monkeys; 30 mg/kg", "result": 0.58, "unit": "mg/dL"}, {"measurement": "Glucose", "setting": "cynomolgus monkeys; 30 mg/kg", "result": 53, "unit": "mg/dL"}, {"measurement": "TG", "setting": "cynomolgus monkeys; 30 mg/kg", "result": 64, "unit": "mg/dL"}, {"measurement": "Tot Bil", "setting": "cynomolgus monkeys; 30 mg/kg", "result": 0.2, "unit": "mg/dL"}, {"measurement": "Tot Prot", "setting": "cynomolgus monkeys; 30 mg/kg", "result": 7.2, "unit": "g/dL"}, {"measurement": "ALP", "setting": "cynomolgus monkeys; 100 mg/kg", "result": 390, "unit": "U/L"}, {"measurement": "ALT", "setting": "cynomolgus monkeys; 100 mg/kg", "result": 43, "unit": "U/L"}, {"measurement": "AST", "setting": "cynomolgus monkeys; 100 mg/kg", "result": 37, "unit": "U/L"}, {"measurement": "Albumin", "setting": "cynomolgus monkeys; 100 mg/kg", "result": 3.2, "unit": "g/dL"}, {"measurement": "BUN", "setting": "cynomolgus monkeys; 100 mg/kg", "result": 24, "unit": "mg/dL"}, {"measurement": "Chol", "setting": "cynomolgus monkeys; 100 mg/kg", "result": 93, "unit": "mg/dL"}, {"measurement": "Cr", "setting": "cynomolgus monkeys; 100 mg/kg", "result": 0.55, "unit": "mg/dL"}, {"measurement": "Glucose", "setting": "cynomolgus monkeys; 100 mg/kg", "result": 32, "unit": "mg/dL"}, {"measurement": "TG", "setting": "cynomolgus monkeys; 100 mg/kg", "result": 61, "unit": "mg/dL"}, {"measurement": "Tot Bil", "setting": "cynomolgus monkeys; 100 mg/kg", "result": 0.18, "unit": "mg/dL"}, {"measurement": "Tot Prot", "setting": "cynomolgus monkeys; 100 mg/kg", "result": 6, "unit": "g/dL"}, {"measurement": "Plasma concentrations after topical administration", "setting": "[2]", "result": "lower plasma concentrations relative to similar oral dosing"}, {"measurement": "Induction of luciferase activity, GSTA2-ARE reporter", "setting": "[3]", "result": "~2", "unit": "fold"}, {"measurement": "Induction of luciferase activity, NQO1-ARE reporter", "setting": "[4]", "result": "~2", "unit": "fold"}, {"measurement": "inhibition at 3 µM", "setting": "CYP2C19", "result": "< 50", "unit": "%"}, {"measurement": "Tumor image (luciferase), RTA 408 plus ionizing radiation", "setting": "[5]", "result": "no visible tumor on Day 21"}]}
